What was measured:
[1] = system: Surinam grass; assay: Test C pre-/postemergence herbicide test; assay type: in vivo, Urochloa decumbens
How it was run: (§1)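 Pre/post spray; non-phytotoxic solvent + surfactant. Post-timing 1–4 leaves, 2–18 cm. Read-out: visual % control vs untreated, day 12–14, greenhouse.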

[2] = system: barnyardgrass; assay: Test B flooded paddy test; assay type: in vivo, Echinochloa crus-galli; details: 1000 g ai/ha, scale 0 to 100 (0 no effect, 100 complete control)
How it was run: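 Greenhouse test; postemergence application to plants at 1–4 leaves (2–18 cm); paddy species at 2 leaves; evaluated visually vs controls at 13–15 days; scale 0–100 (100 = complete control).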

[3] = system: goosegrass; assay: Test C pre-/postemergence herbicide test; assay type: in vivo, Eleusine indica
How it was run: as §1

[4] = system: giant foxtail; assay: Test A pre-/postemergence herbicide test; assay type: in vivo, Setaria faberi
How it was run: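 Greenhouse injury scoring (0–100, complete control = 100) at approximately ten days follows simultaneous pre- and postemergence application. Soil received a directed spray after seeding; seedlings of 2–10 cm at the one- to two-leaf stage were sprayed to runoff.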

[5] = system: lambsquarters; assay: Test B pre-/postemergence herbicide test; assay type: in vivo, Chenopodium album
How it was run: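 Seeds were planted and treated preemergence with compounds formulated in a non-phytotoxic solvent mixture containing surfactant, while plants at the 1- to 4-leaf stage (2 to 18 cm) received postemergence sprays. Flooded paddy plants were grown to the 2-leaf stage. After 13 to 15 days in a greenhouse, injury was visually rated 0–100 against untreated controls.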

[6] = system: pigweed; assay: Test C pre-/postemergence herbicide test; assay type: in vivo, Amaranthus retroflexus
How it was run: as §1

[7] = system: soybean; assay: Test C pre-/postemergence herbicide test; assay type: in vivo, Glycine max
How it was run: as §1

[8] = Postemergence, 250 g ai/ha, scale 0 to 100, 0 no effect, 100 complete control
[9] = Postemergence, 500 g ai/ha, scale 0 to 100, 0 no effect, 100 complete control
[10] = postemergence, 125 g ai/ha, scale 0 to 100
[11] = postemergence, 62 g ai/ha, scale 0 to 100
[12] = Postemergence, 500 g ai/ha, 0 to 100 scale, 0 no effect, 100 complete control
[13] = Postemergence, 2000 g ai/ha, 0 to 100 scale, 0 no effect, 100 complete control
[14] = Preemergence, 2000 g ai/ha, visual rating, 0 to 100 scale (0 no effect, 100 complete control)
[15] = 62 g ai/ha, preemergence, scale 0 to 100
[16] = 125 g ai/ha, scale 0 (no effect) to 100 (complete control), visual, 12 to 14 days, preemergence
[17] = Preemergence, 500 g ai/ha, scale 0 to 100, 0 no effect, 100 complete control
[18] = Preemergence, 500 g ai/ha, visual rating, 0 to 100 scale (0 no effect, 100 complete control)
[19] = preemergence, 125 g ai/ha, 0 to 100 scale, 0 is no effect, 100 is complete control
[20] = 31 g ai/ha, preemergence, scale 0 to 100

## CCn1nc(C(C)(C)C)cc1C(=O)Nc1cc(OC(F)(F)F)ccc1F [Compound 338]
[1]; [8]
  Plant response rating, Surinam Grass: 0
[1]; [9]
  Plant response rating, Surinam Grass: 30
[1]; [10]
  Plant response rating, Surinam Grass: 0
[1]; [11]
  Plant response rating, Surinam Grass: 0
[2]
  Barnyardgrass plant response rating: 40
[3]; [8]
  Plant response rating, Goosegrass: 10
[3]; [9]
  Plant response rating, Goosegrass: 10
[3]; [10]
  Plant response rating, Goosegrass: 5
[3]; [11]
  Plant response rating, Goosegrass: 0
[4]; [12]
  Foxtail, Giant plant response rating: 20
[4]; [13]
  Plant response rating, Foxtail, Giant: 30
[4]; [14]
  Foxtail, Giant plant response rating: 100
[4]; preemergence, 500 g ai/ha, visual injury, 0 to 100 scale (0 no effect, 100 complete control)
  Foxtail, Giant plant response rating: 80
[5]; 125 g ai/ha, 0 is no effect, 100 is complete control, preemergence
  Plant response rating (0 to 100 scale), Lambsquarters: 60
[5]; 125 g ai/ha, visual rating, scale 0 (no effect) to 100 (complete control), postemergence
  Lambsquarters plant response rating: 10
[5]; 500 g ai/ha, visual rating, 0 = no effect, 100 = complete control, preemergence
  Plant response rating, Lambsquarters: 100
[5]; postemergence, 500 g ai/ha, scale 0 to 100, 0 is no effect, 100 is complete control
  Lambsquarters plant response rating: 50
[6]; [8]
  Plant response rating, Pigweed: 80
[6]; [9]
  Plant response rating, Pigweed: 80
[6]; [10]
  Plant response rating, Pigweed: 5
[6]; [11]
  Plant response rating, Pigweed: 0
[7]; [8]
  Plant response rating, Soybean: 35
[7]; [9]
  Plant response rating, Soybean: 60
[7]; [10]
  Plant response rating, Soybean: 30
[7]; [11]
  Plant response rating, Soybean: 10

## CCN(CC)C(=O)c1ccnc(NC(=O)c2cc(C(C)(C)C)nn2CC)c1 [Compound 153]
[1]; [15]
  Plant response rating, Surinam Grass: 0
[1]; [16]
  Plant response rating, Surinam Grass: 0
[1]; [17]
  Surinam Grass plant response rating: 100
[2]; visual rating, 13 to 15 days
  Barnyardgrass plant response rating: 40
[3]; [15]
  Plant response rating, Goosegrass: 55
[3]; [16]
  Plant response rating, Goosegrass: 75
[3]; [17]
  Goosegrass plant response rating: 95
[4]; [12]
  Foxtail, Giant plant response rating: 20
[4]; [13]
  Plant response rating, Foxtail, Giant: 90
[4]; [18]
  Foxtail, Giant plant response rating: 15
[4]; [14]
  Foxtail, Giant plant response rating: 60
[5]; 500 g ai/ha, visual rating 0-100, 0 no effect, 100 complete control, preemergence
  Plant response rating, Lambsquarters: 100
[5]; postemergence, 125 g ai/ha, visual rating, scale 0 (no effect) to 100 (complete control)
  Lambsquarters plant response rating: 80
[5]; postemergence, 500 g ai/ha, visual rating, scale 0 (no effect) to 100 (complete control)
  Lambsquarters plant response rating: 80
[5]; [19]
  Plant response rating, Lambsquarters: 100
[6]; [15]
  Plant response rating, Pigweed: 95
[6]; [16]
  Plant response rating, Pigweed: 100
[6]; [17]
  Pigweed plant response rating: 100
[7]; [15]
  Plant response rating, Soybean: 0
[7]; [16]
  Plant response rating, Soybean: 0
[7]; [17]
  Soybean plant response rating: 15

## CCNC(=O)c1cccc(NC(=O)c2cc(C(C)(C)C)nn2CCF)c1 [Compound 35]
[1]; [20]
  Plant response rating, Surinam Grass: 0
[1]; 62 g ai/ha, preemergence
  Plant response rating (0 = no effect, 100 = complete control), Surinam Grass: 10
[1]; [16]
  Plant response rating, Surinam Grass: 20
[1]; [10]
  Plant response rating, Surinam Grass: 60
[1]; [11]
  Plant response rating, Surinam Grass: 40
[2]; visual rating, 13 to 15 days
  Barnyardgrass plant response rating: 90
[3]; [20]
  Plant response rating, Goosegrass: 20
[3]; 62 g ai/ha, preemergence
  Plant response rating (0 = no effect, 100 = complete control), Goosegrass: 30
[3]; [16]
  Plant response rating, Goosegrass: 70
[3]; Postemergence, 125 g ai/ha, scale 0 to 100, 0 no effect, 100 complete control
  Plant response rating, Goosegrass: 50
[3]; [11]
  Plant response rating, Goosegrass: 40
[4]; [12]
  Plant response rating, Foxtail, Giant: 50
[4]; [13]
  Plant response rating, Foxtail, Giant: 70
[4]; [18]
  Foxtail, Giant plant response rating: 80
[4]; Preemergence, 2000 g ai/ha, 0 to 100 scale, 0 no effect, 100 complete control
  Foxtail, Giant plant response rating: 100
[5]; Postemergence, 125 g ai/ha, scale 0 (no effect) to 100 (complete control)
  Lambsquarters plant response rating: 80
[5]; Postemergence, 500 g ai/ha, visual rating after 13 to 15 days, scale 0 (no effect) to 100 (complete control)
  Plant response rating, Lambsquarters: 90
[5]; Preemergence, 500 g ai/ha, scale 0 to 100
  Lambsquarters plant response rating: 100
[5]; [19]
  Plant response rating, Lambsquarters: 90
[6]; [20]
  Plant response rating, Pigweed: 0
[6]; 62 g ai/ha, preemergence
  Plant response rating (0 = no effect, 100 = complete control), Pigweed: 90
[6]; [16]
  Plant response rating, Pigweed: 100
[6]; [10]
  Plant response rating, Pigweed: 100
[6]; [11]
  Plant response rating, Pigweed: 100
[7]; [20]
  Plant response rating, Soybean: 0
[7]; 62 g ai/ha, preemergence
  Plant response rating (0 = no effect, 100 = complete control), Soybean: 0
[7]; [16]
  Plant response rating, Soybean: 0
[7]; [10]
  Plant response rating, Soybean: 90
[7]; [11]
  Plant response rating, Soybean: 90

— US20060069132A1, “Azolecarboxamide herbicides” (priority 2004, published 2006)
